According to patent publication US20020045780A1, “Biologically active spermidine analogues, pharmaceutical compositions and methods of treatment” (priority 1997, published 2002):
Structures can show the parent of a compound that is named as a salt. Where two headings read alike, the source gives them in different places.

Columns and labels:
[1] = system: spermidine/spermine acetyltransferase (SSAT); settings: L1210, 2 μM at 48 hours (tetraamine analogues); cited from earlier work
L1210 cells [2] = settings: 48 hours, cited from earlier work; for Put, corresponding tetraamine (in parentheses) / Spd, corresponding tetraamine (in parentheses) / Spm, corresponding tetraamine (in parentheses): % of untreated control; for Analogue, corresponding tetraamine (in parentheses): intracellular amount
SSAT = settings: MALME-3 cells; cited from earlier work
L1210 cells [3] = experiment: Metabolic transformation of polyamine analogues by L1210 cells; type: in vitro ADME, murine
Method: The cells were washed twice with cold RPMI-1640, and the pellet was treated with 0.6 N HClO4 (1 ml/10^7 cells). Polyamine contents of the perchloric acid extracts were quantitated by HPLC of the DANSYL derivatives [Bergeron et al, J. Med. Chem., Vol. 37, supra].

[4] = system: S-adenosylmethionine decarboxylase (AdoMetDC); settings: cited from earlier work; for AdoMetDC activity, corresponding tetraamine (in parentheses): L1210, 1 μM at 6 hours
L1210 cells [5] = settings: cited from earlier work
[6] = target: polyamine transport apparatus; settings: cited from earlier work; for Ki: inhibition of spermidine transport, L1210, read-out: Ki, corresponding tetraamine (in parentheses)
[7] = system: ornithine decarboxylase (ODC); settings: cited from earlier work; for ODC activity, corresponding tetraamine (in parentheses): L1210, 1 μM at 4 hours
mice [8] = settings: cited from earlier work
[9] = Acute toxicity in mice (single i.p. dose); type: in vivo; settings: female, CD-1, mouse, in vivo, ip
Method: (§1) In the current study, the acute toxicity of six analogues and the chronic toxicity of two triamines were measured (Table 7). The value of all polyamine LD50s are shown in both mg/kg and mmol/kg for comparison. […] The animals were scored two hours after administration of the drug. It is clear that the acute LD50s for triamine analogues are approximately twice the acute LD50s for the corresponding tetraamine analogues.
(§2) Acute and chronic toxicities were assessed in 10-12 week old CD-1 female mice from Harlan Sprague-Dawley. For acute toxicities, the polyamine analogues were administered in a single i.p. injection to groups of five or six animals at each dose. The animals were scored two hours after administration of the dose. All survivors were further observed for 10 days to assess late onset of toxicity from the single acute dose. In the chronic toxicity regimen, mice were administered polyamine analogue in three i.p. doses per day (t.i.d.) for six days, for a total of eighteen doses per animal. Appetite, weight and overall appearance were monitored daily. […] At least three test groups of 5-6 animals each, representing three different dose levels, were evaluated for each analogue tested. These dose levels were chosen so that at least two groups presented with lethalities, one with a high fraction of lethalities (>0.50, but <1.00).

mice [10] = experiment: Acute toxicity in mice (single i.p. dose); type: in vivo
Method: as §1, §2

[11] = L1210, 48 hour exposure, read-out: IC50 48 hour, corresponding tetraamine (in parentheses)
[12] = L1210, 96 hour exposure, read-out: IC50 96 hour, corresponding tetraamine (in parentheses)
[13] = mice, single dose i.p., scored two hours after dose, read-out: Acute LD50
[14] = female, CD-1, mouse, in vivo, 600 mg/kg

## CCNCCCNCCCNCCCNCC [DENSPM, N^1,N^11-diethylnorspermine]
[1]
  SSAT activity, corresponding tetraamine (in parentheses): 1500% of untreated control
L1210 cells [2]; 10 μM
  Put, corresponding tetraamine (in parentheses): (30) %
  Spd, corresponding tetraamine (in parentheses): (14) %
  Spm, corresponding tetraamine (in parentheses): (31) %
  Analogue, corresponding tetraamine (in parentheses): (1.59) nmol/10^6 cells
L1210 cells [2]; 100 μM
  Analogue, corresponding tetraamine (in parentheses): (2.44) nmol/10^6 cells
SSAT
  SSAT up-regulation: 1200 fold
L1210 cells [3]; 48 hours, 500 μM analogue
  Parent drug as % of total drug in the cell: 95.3%
  Parent drug in L1210 cells: 2440 pmols/10^6
[4]
  AdoMetDC activity, corresponding tetraamine (in parentheses): 42% of untreated control
L1210 cells [5]; [11]
  IC50: > 100 µM
L1210 cells [5]; [12]
  IC50: 2 µM
[6]
  Ki: 17 µM
[6]; polyamine transport system
  Ki relative to those of DESPM and DEHSPM: over 10 times

## CNCCCCNCCCCNCCCCNC [DMHSPM]
[1]
  SSAT activity, corresponding tetraamine (in parentheses): 140% of untreated control
[7]
  ODC activity, corresponding tetraamine (in parentheses): 4% of untreated control
L1210 cells [2]; 100 μM
  Put, corresponding tetraamine (in parentheses): (0) %
  Spd, corresponding tetraamine (in parentheses): (0) %
  Spm, corresponding tetraamine (in parentheses): (30) %
  Analogue, corresponding tetraamine (in parentheses): (1.49) nmol/10^6 cells
L1210 cells [2]; 500 μM
  Put, corresponding tetraamine (in parentheses): (0) %
  Spd, corresponding tetraamine (in parentheses): (0) %
  Spm, corresponding tetraamine (in parentheses): (27) %
  Analogue, corresponding tetraamine (in parentheses): (1.03) nmol/10^6 cells
L1210 cells [3]; L1210 cells, data not shown, concentration not given
  N-dealkylation (result in words): no evidence of N-dealkylation
[4]
  AdoMetDC activity, corresponding tetraamine (in parentheses): 45% of untreated control
L1210 cells [5]; [11]
  IC50: > 100 µM
L1210 cells [5]; [12]
  IC50: 0.32 µM
[6]
  Ki: 0.97 µM

## CCNCCCCNCCCCCNCCCCNCC [DE(4,5,4)]
[1]
  SSAT activity, corresponding tetraamine (in parentheses): 120 (120) percent of untreated control
[7]
  ODC activity, corresponding tetraamine (in parentheses): 20% of untreated control
Mice [8]; mice, i.p. t.i.d. × 6 days
  Chronic LD50 (tetraamines): 0.104 mmol/kg/day
Mice [8]; mouse, in vivo, ip
  Chronic LD50 (tetraamines): 48 mg/kg-day
[9]; [13]
  LD50 at 2 h: 638 µmol/kg
Mice [10]; mice, single dose i.p., scored two hours after dose, hydrochloride salts
  Acute LD50: 285 mg/kg
L1210 cells [2]; 0.3 μM
  Put, corresponding tetraamine (in parentheses): (44) %
  Spd, corresponding tetraamine (in parentheses): (61) %
  Spm, corresponding tetraamine (in parentheses): (70) %
  Analogue, corresponding tetraamine (in parentheses): (0.26) nmol/10^6 cells
L1210 cells [5]; [11]
  IC50: 0.3 µM
L1210 cells [5]; [12]
  IC50: 0.035 µM
[6]
  Ki: 6 µM

## CCNCCCCCNCCCCNCCCCCNCC.Cl.Cl.Cl.Cl [DE(5,4,5), 3,9,14,20-Tetraazadocosane Tetrahydrochloride]
[1]
  SSAT activity, corresponding tetraamine (in parentheses): 190% of untreated control
[7]
  ODC activity, corresponding tetraamine (in parentheses): 19% of untreated control
Mice [8]; mice, i.p. t.i.d. × 6 days, hydrochloride salts
  Chronic LD50 (tetraamines): 36 mg/kg-day
Mice [8]; mice, i.p. t.i.d. × 6 days
  Chronic LD50 (tetraamines): 0.078 mmol/kg/day
[9]; mice, single dose i.p., scored two hours after dose, hydrochloride salts, read-out: Acute LD50
  LD50 at 2 h: 195 mg/kg
[9]; [13]
  LD50 at 2 h: 424 µmol/kg
L1210 cells [2]; 0.75 μM
  Put, corresponding tetraamine (in parentheses): (0) %
  Spd, corresponding tetraamine (in parentheses): (10) %
  Spm, corresponding tetraamine (in parentheses): (58) %
  Analogue, corresponding tetraamine (in parentheses): (1.48) nmol/10^6 cells
[4]
  AdoMetDC activity, corresponding tetraamine (in parentheses): 54% of untreated control
L1210 cells [5]; [11]
  IC50: 0.4 µM
L1210 cells [5]; [12]
  IC50: 0.03 µM
[6]
  Ki: 16 µM

## CCNCCCNCCCCNCCCNCC [DESPM, N^1,N^12-diethylspermine]
[1]
  SSAT activity, corresponding tetraamine (in parentheses): 460% of untreated control
[7]; previous studies
  Time at which reduction in ODC activity plateaued: 4 h
[9]
  LD50 at 2 h: 842 µmol/kg
Mice [10]; [14]
  Animals died within seven days: 5/5
  Death within the initial 2 hours: no death
SSAT
  SSAT up-regulation: 250 fold
[4]
  AdoMetDC activity, corresponding tetraamine (in parentheses): 28% of untreated control
[4]; previous studies
  Time at which reduction in AdoMetDC activity plateaued: 6 h
L1210 cells [5]; [11]
  IC50: 30 µM
L1210 cells [5]; [12]
  IC50: 0.18 µM
[6]
  Ki: 1.6 µM

## CCNCCCCNCCCCNCCCCNCC [DEHSPM, N^1,N^14-diethylhomospermine]
[1]
  SSAT activity, corresponding tetraamine (in parentheses): 110% of untreated control
[7]
  ODC activity, corresponding tetraamine (in parentheses): 7% of untreated control
L1210 cells [2]; 10 μM
  Put, corresponding tetraamine (in parentheses): (0) %
  Spd, corresponding tetraamine (in parentheses): (0) %
  Spm, corresponding tetraamine (in parentheses): (61) %
  Analogue, corresponding tetraamine (in parentheses): (2.94) nmol/10^6 cells
SSAT
  SSAT up-regulation: 30 fold
L1210 cells [3]; 48 hours, 100 μM analogue
  N-Monodealkylation (result in words): no N-deethylation
  Parent drug as % of total drug in the cell: 100%
  Parent drug in L1210 cells: 4215 pmols/10^6
L1210 cells [5]; [11]
  IC50: 0.2 µM
L1210 cells [5]; [12]
  IC50: 0.07 µM
[6]
  Ki: 1.4 µM

## CCCNCCCNCCCCNCCCNCCC [DPSPM]
[1]
  SSAT activity, corresponding tetraamine (in parentheses): 500% of untreated control
[7]
  ODC activity, corresponding tetraamine (in parentheses): 52% of untreated control
L1210 cells [2]; 15 μM
  Put, corresponding tetraamine (in parentheses): (0) %
  Analogue, corresponding tetraamine (in parentheses): (1.09) nmol/10^6 cells
L1210 cells [2]; 3 μM
  Analogue, corresponding tetraamine (in parentheses): (1.12) nmol/10^6 cells
L1210 cells [3]; 48 hours, 15 μM analogue
  Parent drug as % of total drug in the cell: 79.0%
  Parent drug in L1210 cells: 1568 pmols/10^6
[4]
  AdoMetDC activity, corresponding tetraamine (in parentheses): 72% of untreated control
L1210 cells [5]; [11]
  IC50: 3 µM
L1210 cells [5]; [12]
  IC50: 0.2 µM
[6]
  Ki: 2.3 µM

## CCCNCCCNCCCNCCCNCCC [DPNSPM, N^1,N^11-Dipropylnorspermine Tetrahydrochloride]
[1]
  SSAT activity, corresponding tetraamine (in parentheses): 460% of untreated control
[7]
  ODC activity, corresponding tetraamine (in parentheses): 79% of untreated control
L1210 cells [2]; 100 μM
  Put, corresponding tetraamine (in parentheses): (61) %
  Spd, corresponding tetraamine (in parentheses): (35) %
  Spm, corresponding tetraamine (in parentheses): (77) %
  Analogue, corresponding tetraamine (in parentheses): (0.89) nmol/10^6 cells
L1210 cells [2]; 500 μM
  Put, corresponding tetraamine (in parentheses): (0) %
  Spd, corresponding tetraamine (in parentheses): (19) %
  Spm, corresponding tetraamine (in parentheses): (56) %
  Analogue, corresponding tetraamine (in parentheses): (1.28) nmol/10^6 cells
L1210 cells [3]; 48 hours, 100 μM analogue
  Parent drug as % of total drug in the cell: 78.2%
  Parent drug in L1210 cells: 893 pmols/10^6
[4]
  AdoMetDC activity, corresponding tetraamine (in parentheses): 70% of untreated control
L1210 cells [5]; [11]
  IC50: > 100 µM
L1210 cells [5]; [12]
  IC50: 18 µM
[6]
  Ki: 11 µM
